Data as given in ChEMBL document CHEMBL1135240, “Benzene fused monocyclic enediynyl amides: synthesis, reactivity and DNA-cleavage activity in comparison to the corresponding sulfonamides” (Bioorg Med Chem Lett, 2002).

What was measured:
[1] = The compound was evaluated for rate constant at 70 deg. C; format: ADME
[2] = The compound was evaluated for half life at 70 deg. C; format: ADME

Rate constant [1] | half-life [2] | SMILES
0.0143 h⁻¹ | 49 h | O=[N+]([O-])c1ccc(S(=O)(=O)N2CC#Cc3ccccc3C#CCC2)cc1
0.0051 h⁻¹ | 136 h | O=C(c1ccc([N+](=O)[O-])cc1)N1CC#Cc2ccccc2C#CCC1
0.0037 h⁻¹ | 188 h | O=C(c1ccccc1)N1CC#Cc2ccccc2C#CCC1
0.0244 h⁻¹ | 28 h | O=[N+]([O-])c1ccc(S(=O)(=O)N2CC#Cc3ccccc3C#CCC2)c([N+](=O)[O-])c1
